Results: patent publication US20250346585A1 (Alexion Pharmaceuticals, Inc., priority 2022, published 2025)
Read-outs that look alike come from different tables or passages of the source.

Molecular target: Human complement C1s enzyme (Homo sapiens (Human), UniProt P09871)
Assay: Human C1s enzyme assay
Type: biochemical
Conditions: read-out: IC50 (Stars)
In short: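 Purified serum-derived human C1s (1.16 nM final) preincubated 5 min at room temperature with compound in 50 mM Tris, 1 M NaCl, pH 7.5. Z-L-Lys-SBzl thioester substrate and DTNB added (100 μM each, final); A405 read every 30 s for 30 min. IC50 from nonlinear regression of reaction rates against compound concentration.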

[1] = Human complement C1s enzyme 1.16 nM, substrate Z-L-Lys-SBzl, assay of Example 3
[2] = Human complement C1s enzyme 1.16 nM, substrate Z-L-Lys-SBzl 100 μM, assay of Example 3
[3] = Human C1s enzyme assay of Example 3

Sequence of Human complement C1s enzyme (P09871 438-688 limits assumed): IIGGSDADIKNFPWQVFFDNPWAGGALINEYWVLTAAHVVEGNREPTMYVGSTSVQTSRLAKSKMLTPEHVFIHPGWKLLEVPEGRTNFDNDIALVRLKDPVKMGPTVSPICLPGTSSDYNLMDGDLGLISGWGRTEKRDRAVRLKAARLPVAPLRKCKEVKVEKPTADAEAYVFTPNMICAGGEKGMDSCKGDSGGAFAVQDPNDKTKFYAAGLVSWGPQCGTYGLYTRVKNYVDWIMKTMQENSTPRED
Sequence of Human complement C1s enzyme (P09871 16-437 partner limits assumed): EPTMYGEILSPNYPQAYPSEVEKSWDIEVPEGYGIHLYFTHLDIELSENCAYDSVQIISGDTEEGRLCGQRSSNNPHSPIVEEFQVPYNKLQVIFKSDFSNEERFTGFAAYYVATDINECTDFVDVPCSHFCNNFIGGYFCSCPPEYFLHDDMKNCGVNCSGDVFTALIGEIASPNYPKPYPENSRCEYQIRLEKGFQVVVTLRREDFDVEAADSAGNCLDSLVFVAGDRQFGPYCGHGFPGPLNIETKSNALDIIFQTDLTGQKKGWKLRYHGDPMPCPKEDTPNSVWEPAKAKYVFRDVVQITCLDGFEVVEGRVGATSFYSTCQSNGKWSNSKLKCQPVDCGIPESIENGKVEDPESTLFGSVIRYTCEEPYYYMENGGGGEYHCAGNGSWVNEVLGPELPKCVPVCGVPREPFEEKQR

Row | SMILES | IC50 [2] [nM] | IC50 [3] [nM] | other results
1 | COC[C@@]1(F)C[C@@H](C(=O)N[C@H](CO)c2cc(C(=N)N)cs2)N(C(=O)CNC(=O)c2ccc3c(c2)-c2ccccc2C3(C)C)C1 [Compound 409, (2S,4R)—N—((R)-1-(4-carbamimidoylthiophen-2-yl)-2-hydroxyethyl)-1-((9,9-dimethyl-9H-fluorene-3-carbonyl)glycyl)-4-fluoro-4-(methoxymethyl)pyrrolidine-2-carboxamide] |  |  | IC50 [1]: < 100 nM
2 | Cc1ccc(-c2ccc(C(=O)NCC(=O)N3CC4(C[C@H]3C(=O)NCc3cc(C(=N)N)cs3)OCCO4)cc2)cc1F [Compound 210, (S)—N-((4-carbamimidoylthiophen-2-yl)methyl)-7-((3′-fluoro-4′-methyl-[1,1′-biphenyl]-4-carbonyl)glycyl)-1,4-dioxa-7-azaspiro[4.4]nonane-8-carboxamide] | < 100 |  | 
3 | COc1ccc2c(c1)C(F)(F)c1ccc(C(=O)NCC(=O)N3CC4(C[C@H]3C(=O)N[C@H](C)c3cc(C(=N)N)cs3)OCCO4)cc1-2 [Compound 191, (S)—N—((R)-1-(4-carbamimidoylthiophen-2-yl)ethyl)-7-((9,9-difluoro-7-methoxy-9H-fluorene-3-carbonyl)glycyl)-1,4-dioxa-7-azaspiro[4.4]nonane-8-carboxamide] |  | < 100 | 
4 | C[C@@H](NC(=O)[C@@H]1CC2(CN1C(=O)CNC(=O)c1ccc3c(c1)[nH]c1ccccc13)OCCO2)c1cc(C(=N)N)cs1 [Compound 374, (S)-7-((9H-carbazole-2-carbonyl)glycyl)-N—((R)-1-(4-carbamimidoylthiophen-2-yl)ethyl)-1,4-dioxa-7-azaspiro[4.4]nonane-8-carboxamide] | < 100 |  | 
5 | C[C@@H](NC(=O)[C@@H]1C[C@](F)(CF)CN1C(=O)CNC(=O)c1ccc2c(c1)oc1ccccc12)c1cc(C(=N)N)cs1 [Compound 372, (2S,4R)—N—((R)-1-(4-carbamimidoylthiophen-2-yl)ethyl)-1-((dibenzo[b,d]furan-3-carbonyl)glycyl)-4-fluoro-4-(fluoromethyl)pyrrolidine-2-carboxamide] | < 100 |  | 
6 | C[C@@H](NC(=O)[C@@H]1C[C@]2(COCCN)C[C@@H]2N1C(=O)CNC(=O)c1ccc2c(c1)-c1ccccc1C2(F)F)c1cc(C(=N)N)cs1 [Compound 313, (1S,3S,5R)-5-((2-aminoethoxy)methyl)-N—((R)-1-(4-carbamimidoylthiophen-2-yl)ethyl)-2-((9,9-difluoro-9H-fluorene-3-carbonyl)glycyl)-2-azabicyclo[3.1.0]hexane-3-carboxamide] | < 100 |  | 
7 | C[C@@H](NC(=O)[C@@H]1C[C@](F)(CF)CN1C(=O)CNC(=O)c1ccc2c(c1)-c1ccccc1C2(F)F)c1cc(C(=N)N)cs1 [Compound 11, (2S,4R)—N-[(1R)-1-(4-carbamimidoylthiophen-2-yl)ethyl]-1-{2-[(9,9-difluorofluoren-3-yl)formamido]acetyl}-4-fluoro-4-(fluoromethyl) pyrrolidine-2-carboxamide] |  | < 100 | 
8 | C[C@@H](NC(=O)[C@@H]1CC2(CN1C(=O)CNC(=O)c1ccc3c(c1)-c1ccccc1C3(F)F)OCCO2)c1cc(-c2cncnc2)cs1 [Compound 91, (S)-7-((9,9-difluoro-9H-fluorene-3-carbonyl)glycyl)-N—((R)-1-(4-(pyrimidin-5-yl)thiophen-2-yl)ethyl)-1,4-dioxa-7-azaspiro[4.4]nonane-8-carboxamide] |  | > 1000 | 
9 | C[C@@H](NC(=O)[C@@H]1C[C@](F)(COCCNC(=O)CC[C@H](NC(=O)CCCCCCCCCCCCCCCCC(=O)O)C(=O)O)CN1C(=O)CNC(=O)c1ccc2c(c1)-c1ccccc1C2(F)F)c1cc(C(=N)N)cs1 [Compound 133, 18-(((S)-4-((2-(((3R,5S)-5-(((R)-1-(4-carbamimidoylthiophen-2-yl)ethyl)carbamoyl)-1-((9,9-difluoro-9H-fluorene-3-carbonyl)glycyl)-3-fluoropyrrolidin-3-yl)methoxy)ethyl)amino)-1-carboxy-4-oxobutyl)amino)-18-oxooctadecanoic acid] |  | < 100 | 
10 | CC(=O)ONC(=N)c1csc([C@@H](C)NC(=O)[C@@H]2CC3(CN2C(=O)CNC(=O)c2ccc4c(c2)-c2ccccc2C4(F)F)OCCO3)c1 [Compound 125, (S)—N—((R)-1-(4-(N-acetoxycarbamimidoyl)thiophen-2-yl)ethyl)-7-((9,9-difluoro-9H-fluorene-3-carbonyl)glycyl)-1,4-dioxa-7-azaspiro[4.4]nonane-8-carboxamide] |  | < 100 | 
11 | CS(=O)(=O)[C@@H]1C[C@@H](C(=O)N[C@H](CO)c2cc(C(=N)N)cs2)N(C(=O)CNC(=O)c2ccc3c(c2)C(F)(F)c2ccccc2-3)C1 [Compound 406, (2S,4R)—N—((R)-1-(4-carbamimidoylthiophen-2-yl)-2-hydroxyethyl)-1-((9,9-difluoro-9H-fluorene-2-carbonyl)glycyl)-4-(methylsulfonyl)pyrrolidine-2-carboxamide] |  |  | IC50 [1]: < 100 nM
12 | C[C@@H](NC(=O)[C@@H]1C[C@@H](S(C)(=O)=O)CN1C(=O)CNC(=O)c1ncc(-c2ccccc2)cc1F)c1cc(C(=N)N)cs1 [Compound 339, N-(2-((2S,4R)-2-(((R)-1-(4-carbamimidoylthiophen-2-yl)ethyl)carbamoyl)-4-(methylsulfonyl)pyrrolidin-1-yl)-2-oxoethyl)-3-fluoro-5-phenylpicolinamide] | < 100 |  | 
13 | C[C@@H](NC(=O)[C@@H]1C[C@@H](c2ccccc2)CN1C(=O)CNC(=O)c1ccc2oc3ccccc3c2c1)c1cc(C(=N)N)cs1 [Compound 218, (2S,4S)—N—((R)-1-(4-carbamimidoylthiophen-2-yl)ethyl)-1-((dibenzo[b,d]furan-2-carbonyl)glycyl)-4-phenylpyrrolidine-2-carboxamide] | < 100 |  | 
14 | C[C@@H](NC(=O)[C@@H]1C[C@@H](OC(F)F)CN1C(=O)CNC(=O)c1ccc2c(c1)sc1ccccc12)c1cc(C(=N)N)cs1 [Compound 352, (2S,4R)—N—((R)-1-(4-carbamimidoylthiophen-2-yl)ethyl)-1-((dibenzo[b,d]thiophene-3-carbonyl)glycyl)-4-(difluoromethoxy)pyrrolidine-2-carboxamide] | < 100 |  | 
15 | CCCCCCOC(=O)/N=C(/N)c1csc([C@@H](C)NC(=O)[C@@H]2C[C@](F)(COC)CN2C(=O)CNC(=O)c2ccc3c(c2)-c2ccccc2C3(F)F)c1 [Compound 249, hexyl ((E)-amino(5-((R)-1-((2S,4R)-1-((9,9-difluoro-9H-fluorene-3-carbonyl)glycyl)-4-fluoro-4-(methoxymethyl)pyrrolidine-2-carboxamido)ethyl)thiophen-3-yl)methylene)carbamate] | < 100 |  | 
16 | C[C@@H](NC(=O)[C@@H]1CC2(CN1C(=O)CNC(=O)c1ccc3c(c1)-c1ccccc1C3(F)F)OCCO2)c1cc(-c2nn[nH]n2)cs1 [Compound 92, (S)—N—((R)-1-(4-(2H-tetrazol-5-yl)thiophen-2-yl)ethyl)-7-((9,9-difluoro-9H-fluorene-3-carbonyl)glycyl)-1,4-dioxa-7-azaspiro[4.4]nonane-8-carboxamide] |  | > 1000 | 
17 | C[C@@H](NC(=O)[C@@H]1C[C@@H](OC(F)(F)F)CN1C(=O)CNC(=O)c1ccc2c(c1)-c1ccccc1C2(F)F)c1cc(C(=N)N)cs1 [Compound 159, (2S,4R)—N—((R)-1-(4-carbamimidoylthiophen-2-yl)ethyl)-1-((9,9-difluoro-9H-fluorene-3-carbonyl)glycyl)-4-(trifluoromethoxy)pyrrolidine-2-carboxamide] |  | < 100 | 
18 | COC[C@@]1(F)C[C@@H](C(=O)N[C@H](C)c2cc(C(=N)N)cs2)N(C(=O)CNC(=O)c2ccc3c(c2)oc2ccccc23)C1 [Compound 360, (2S,4R)—N—((R)-1-(4-carbamimidoylthiophen-2-yl)ethyl)-1-((dibenzo[b,d]furan-3-carbonyl)glycyl)-4-fluoro-4-(methoxymethyl)pyrrolidine-2-carboxamide] | < 100 |  | 
19 | C[C@@H](NC(=O)[C@@H]1CC2(CN1C(=O)CNC(=O)c1cccc(-c3ccc(F)cc3)c1)OCCO2)c1cc(C(=N)N)cs1 [Compound 112, (S)—N—((R)-1-(4-carbamimidoylthiophen-2-yl)ethyl)-7-((4′-fluoro-[1,1′-biphenyl]-3-carbonyl)glycyl)-1,4-dioxa-7-azaspiro[4.4]nonane-8-carboxamide] |  | < 100 | 
20 | N=C(N)c1csc([C@@H](CO)NC(=O)[C@@H]2C[C@](F)(CF)CN2C(=O)CNC(=O)c2ccc3c(c2)C(F)(F)c2ccccc2-3)c1 [Compound 405, (2S,4R)—N—((R)-1-(4-carbamimidoylthiophen-2-yl)-2-hydroxyethyl)-1-((9,9-difluoro-9H-fluorene-2-carbonyl)glycyl)-4-fluoro-4-(fluoromethyl)pyrrolidine-2-carboxamide] |  |  | IC50 [1]: < 100 nM
21 | Cc1cc(C(=O)NCC(=O)N2C[C@H](OC(F)F)C[C@H]2C(=O)N[C@H](C)c2cc(C(=N)N)cs2)ccc1Oc1ccccc1 [Compound 24, (2S,4R)—N—((R)-1-(4-carbamimidoylthiophen-2-yl)ethyl)-4-(difluoromethoxy)-1-((3-methyl-4-phenoxybenzoyl)glycyl)pyrrolidine-2-carboxamide] |  | < 100 | 
22 | Nc1cccc(Nc2csc(CNC(=O)[C@@H]3CC4(CN3C(=O)CNC(=O)c3ccc(Oc5ccc(F)cc5)cc3)OCCO4)c2)n1 [Compound 285, (S)-N-((4-((6-aminopyridin-2-yl)amino)thiophen-2-yl)methyl)-7-((4-(4-fluorophenoxy)benzoyl)glycyl)-1,4-dioxa-7-azaspiro[4.4]nonane-8-carboxamide] | > 1000 |  | 
23 | O=C(NCC(=O)N1CC2(C[C@H]1C(=O)NCc1cc(-c3ncc[nH]3)cs1)OCCO2)c1ccc(Oc2ccc(F)cc2)cc1 [Compound 157, (S)-N-((4-(1H-imidazol-2-yl)thiophen-2-yl)methyl)-7-((4-(4-fluorophenoxy)benzoyl)glycyl)-1,4-dioxa-7-azaspiro[4.4]nonane-8-carboxamide] |  | > 1000 | 
